Test results reported in patent US20230146455A1, “TREATMENT OF INFLAMMATORY DISEASES WITH PEPTIDES AND PHARMACEUTICAL COMPOSITIONS” (Yuyu Pharma, Inc., priority 2020, published 2023).
Several values for one entry are separate records, joined by “and”; a condition that tells them apart may be missing. Equal entries are not always repeated. Where a SMILES comes first, the peptide text is derived from it. [ ]: non-standard residue; d: D form. Hyp = O=C(O)[C@@H]1C[C@@H](O)CN1

Key:
CCL4/MIP-1 beta = test: Example 9 Luminex, LPS hPBMCs: CCL4/MIP-1 beta; type: cell-based, human; conditions: PBMC + LPS(5 ug/ml); for MFI (Bead name: CCL4/MIP-1 beta): dilution 10
Method: Treatment Human PBMCs were pretreated with YY-101, YDE-011 and YDE-043 or reference compound; Xiidra® at various concentration (ranging from 1 nM to 100 uM) for 2 h before stimulation. An equal volume of 0.5% DMSO was used as a vehicle control. Then, the cells were treated with LPS at 5 ug/ml. The supernatants from treated cells were harvested at 24 h and placed in a 96 well for Luminex cytokine & chemokine profiling using a Luminex 200 multiplex assay (Luminex; R&D system, USA).
The main study arm with triplicate wells per group in a 24-well plate: • 1. Blank • 2. PBMC: 0.5% DMSO • 3. PBMC+LPS (5 ug/ml) • 4. PBMC+YY-101 100 uM • 5. PBMC+YY-101 10 uM • 6. PBMC+YY-101 1 uM • 7. PBMC+YY-101 0.1 uM • 8. PBMC+YY-101 0.01 uM • 9. PBMC+LPS (5 ug/ml)+Xiidra®100 uM • 10. PBMC+LPS (5 ug/ml)+Xiidra® 10 uM • 11. PBMC+LPS (5 ug/ml)+Xiidra® 1 uM • 12. PBMC+LPS (5 ug/ml)+Xiidra®0.1 uM • 13. PBMC+LPS (5 ug/ml)+Xiidra®0.01 uM • 14. PBMC+LPS (5 ug/ml)+Xiidra®0.001 uM • 15. PBMC+LPS (5 ug/ml)+YY-101 100 uM • 16. PBMC+LPS (5 ug/ml)+YY-101 10 uM • 17. PBMC+LPS (5 ug/ml)+YY-101 1 uM • 18. PBMC+LPS (5 ug/ml)+YY-101 0.1 uM • 19. PBMC+LPS (5 ug/ml)+YY-101 0.01 uM • 20. PBMC+LPS (5 ug/ml)+YY-101 0.001 uM • 21. PBMC+LPS (5 ug/ml)+YDE-011 100 uM • 22. PBMC+LPS (5 ug/ml)+YDE-011 10 uM • 23. PBMC+LPS (5 ug/ml)+YDE-011 1 uM • 24. PBMC+LPS (5 ug/ml)+YDE-011 0.1 uM • 25. PBMC+LPS (5 ug/ml)+YDE-011 0.01 uM • 26. PBMC+LPS (5 ug/ml)+YDE-011 0.001 uM • 27. PBMC+LPS (5 ug/ml)+YDE-043 100 uM • 28. PBMC+LPS (5 ug/ml)+YDE-043 10 uM • 29. PBMC+LPS (5 ug/ml)+YDE-043 1 uM • 30. PBMC+LPS (5 ug/ml)+YDE-043 0.1 uM • 31. PBMC+LPS (5 ug/ml)+YDE-043 0.01 uM • 32. PBMC+LPS (5 ug/ml)+YDE-043 0.001 uM
Multiplex assay was used to measure 30 cytokines and chemokines. The 1:2, 1:10 and 1:200 diluted cell supernatant and serial dilution of the standard were dispensed into a 96 well plate at 50 ul/well. Then, the pre-mixed cocktail of antibody-coated magnetic beads was dispensed at 50 ul/well and incubated at room temperature for 2 h in a horizontal orbital microplate shaker at 800±500 rpm. The beads were washed using a magnetic device to prevent loss. The biotin-antibody was dispensed in 50 ul of each well and incubated at room temperature for 1 h in a shaker at 800±500 rpm. After washing, streptavidin-PE was added at 50 ul/well and incubated at room temperature for 30 min in a shaker under the same conditions. Finally, after washing, wash buffer (100 ul/well) was added to the plate and incubated in a shaker for 2 min. The Luminex™ 200 setting were set according to the manufacturer's protocol. The data was calculated with a standard five-parameter logistic nonlinear regression analysis of the data (xPonent software 4.2, USA). The levels of cytokine/chemokine are normalized to the live cell counts (1×10^5 cells/mL) and presented as concentrations per mL (pg/mL or ng/mL).

[1] = tested on: IL-6 cytokine release in poly I:C stimulated primary human corneal epithelial cells; test: Soluble IL-6 cytokine release in poly I:C stimulated primary human corneal epithelial cells by ELISA (Example 6); type: cell-based
From the text: To determine the effect of compound by assessing the soluble IL-6 cytokine release in poly I:C stimulated primary human corneal epithelial cells by ELISA. • Test System: Primary Human Corneal Epithelial cells • Assay Format: 96-well plate format • Method of Detection: Enzyme-linked immunosorbent assay • Assay Controls: Hinokitiol Assay protocol as shown below was used to determine the significant effect of test compounds. The data was statistically analyzed by one-way ANOVA with a Bonferroni post test comparing all the columns. The significance was represented by the p value.

[2] = test article 0.001 uM, single replicates
[3] = test article 0.01 uM, single replicates
[4] = test article 0.1 uM, single replicates
[5] = test article 1 uM, single replicates
[6] = test article 10 uM, single replicates
[7] = test article 100 uM, single replicates

## CC(C)C[C@H](NC(=O)CNC(=O)[C@H](CC(C)C)NC(=O)[C@H](CCC(N)=O)NC(=O)CNC(=O)[C@@H]1C[C@@H](O)CN1)C(=O)N[C@@H](C)C(=O)NCC(=O)N1CCC[C@H]1C(=O)N[C@@H](CCCCN)C(=O)O [YDE-011] (H-[Hyp]GQLGLAGPK-OH)
CCL4/MIP-1 beta; test article 0.001 uM, Mean
  Concentration (CCL4/MIP-1 beta): 7251.7 pg/mL
  conc/live cell (CCL4/MIP-1 beta): 1370.9 pg/10^5
  MFI (Bead name: CCL4/MIP-1 beta): 157.3
CCL4/MIP-1 beta; [2]
  MFI (Bead name: CCL4/MIP-1 beta): 158.0 (2×) and 156.0
  Concentration (CCL4/MIP-1 beta): 7267.3 pg/ml (2×) and 7220.3 pg/ml
  conc/live cell (CCL4/MIP-1 beta): 1615.0 pg/10^5 and 1244.9 pg/10^5 and 1253.0 pg/10^5
CCL4/MIP-1 beta; test article 0.01 uM, Mean
  Concentration (CCL4/MIP-1 beta): 7395.1 pg/mL
  conc/live cell (CCL4/MIP-1 beta): 1270.9 pg/10^5
  MFI (Bead name: CCL4/MIP-1 beta): 163.5
CCL4/MIP-1 beta; [3]
  MFI (Bead name: CCL4/MIP-1 beta): 164.0 and 159.0 and 167.5
  Concentration (CCL4/MIP-1 beta): 7407.0 pg/mL and 7290.8 pg/mL and 7487.6 pg/mL
  conc/live cell (CCL4/MIP-1 beta): 1194.7 pg/10^5 and 1429.6 pg/10^5 and 1188.5 pg/10^5
CCL4/MIP-1 beta; test article 0.1 uM, Mean
  Concentration (CCL4/MIP-1 beta): 7029.3 pg/mL
  conc/live cell (CCL4/MIP-1 beta): 1234.5 pg/10^5
  MFI (Bead name: CCL4/MIP-1 beta): 148.0
CCL4/MIP-1 beta; [4]
  MFI (Bead name: CCL4/MIP-1 beta): 152.0 and 151.0 and 141.0
  Concentration (CCL4/MIP-1 beta): 7125.7 pg/mL and 7101.9 pg/mL and 6860.2 pg/mL
  conc/live cell (CCL4/MIP-1 beta): 1079.6 pg/10^5 and 1420.4 pg/10^5 and 1203.6 pg/10^5
CCL4/MIP-1 beta; test article 1 uM, Mean
  Concentration (CCL4/MIP-1 beta): 7165.0 pg/mL
  conc/live cell (CCL4/MIP-1 beta): 1429.9 pg/10^5
  MFI (Bead name: CCL4/MIP-1 beta): 153.7
CCL4/MIP-1 beta; [5]
  MFI (Bead name: CCL4/MIP-1 beta): 151.0 and 152.0 and 158.0
  Concentration (CCL4/MIP-1 beta): 7101.9 pg/mL and 7125.7 pg/mL and 7267.3 pg/mL
  conc/live cell (CCL4/MIP-1 beta): 1291.2 pg/10^5 and 1484.5 pg/10^5 and 1514.0 pg/10^5
CCL4/MIP-1 beta; test article 10 uM, Mean
  Concentration (CCL4/MIP-1 beta): 7321.1 pg/mL
  conc/live cell (CCL4/MIP-1 beta): 1392.8 pg/10^5
  MFI (Bead name: CCL4/MIP-1 beta): 160.3
CCL4/MIP-1 beta; [6]
  MFI (Bead name: CCL4/MIP-1 beta): 166.0 and 153.5 and 161.5
  Concentration (CCL4/MIP-1 beta): 7453.1 pg/mL and 7161.3 pg/mL and 7349.0 pg/mL
  conc/live cell (CCL4/MIP-1 beta): 1380.2 pg/10^5 and 1234.7 pg/10^5 and 1563.6 pg/10^5
CCL4/MIP-1 beta; test article 100 uM, Mean
  Concentration (CCL4/MIP-1 beta): 6290.1 pg/mL
  conc/live cell (CCL4/MIP-1 beta): 1036.8 pg/10^5
  MFI (Bead name: CCL4/MIP-1 beta): 118.5
CCL4/MIP-1 beta; [7]
  MFI (Bead name: CCL4/MIP-1 beta): 119.0 and 121.5 and 115.0
  Concentration (CCL4/MIP-1 beta): 6303.5 pg/mL and 6368.7 pg/mL and 6197.9 pg/mL
  conc/live cell (CCL4/MIP-1 beta): 1033.4 pg/10^5 and 1044.1 pg/10^5 and 1033.0 pg/10^5
[1]
  Poly I:C induced IL-6 cytokine release (in words): attenuate Poly I:C induced of IL-6 cytokine release in a dose dependent manner
  tested concentrations with significant attenuation of IL-6 cytokine release: 30 μM, 10 μM, 1 μM and 0.1 μM
